Laboratory results as given in patent publication US20200278355A1, “CONJUGATED PROTEINS AND USES THEREOF” (THE SCRIPPS RESEARCH INSTITUTE, priority 2017, published 2020).

Tests used:
TXN = target: T1, TXN (Homo sapiens, UniProt P10599); assay: isoTOP-ABPP of compound-treated H460 cells: TXN; assay type: cell-based; details: TXN C35; 40 μM
T1 construct: H460 cells or H460 cells expressing luciferase in a 10 cm plate were incubated with indicated compounds; endogenous in cells; host or cells: H460
Description: (§1) For analysis of NR0B1 ligands or control compound reactivity, H460 cells or H460 cells expressing luciferase in a 10 cm plate were incubated with indicated compounds in serum/dye-free RPMI for 3 hours at 37° C. Cells were washed once ice-cold PBS and lysed in 1% Triton X-100 dissolved in PBS with protease inhibitors (Sigma) by sonication. Samples were clarified by centrifugation for 10 min at 16,000×g. Lysate was adjusted to 1.5 mg ml^−1 in 500 μL.
(§2) Samples were labeled for 1 h at ambient temperature with 100 μM iodoacetamide alkyne (1, IA-alkyne, 5 μL of 10 mM stock in DMSO). Samples were conjugated by copper-catalyzed azide-alkyne cycloaddition (CuAAC) to isotopically labeled, TEV-cleavable tags (TEV-tags). Heavy CuAAC reaction mixtures was added to the DMSO-treated or shGFP control samples and light CuAAC reaction mixture was added to compound-treated or shNRF2 samples. The CuAAC reaction mixture consisted of TEV tags (light or heavy, 10 μL of 5 mM stocks in DMSO, final concentration=100 μM), 1 mM tris(2-carboxyethyl)phosphine hydrochloride (TCEP; fresh 50× stock in water, final concentration=1 mM), ligand (17× stock in DMSO:t-butanol 1:4, final concentration=100 μM) and 1 mM CuSO4 (50× stock in water, final concentration=1 mM). The samples were allowed to react for 1 h at which point the samples were centrifuged (16,000×g, 5 min, 4° C.). […]

TXN2 = target: T2, TXN2 (Homo sapiens, UniProt Q99757); assay: isoTOP-ABPP of compound-treated H460 cells: TXN2; assay type: cell-based; details: TXN2 C90; 40 μM
T2 construct: H460 cells or H460 cells expressing luciferase in a 10 cm plate were incubated with indicated compounds; endogenous in cells; host or cells: H460
Description: as §1, §2

T1 sequence (P10599 whole entry): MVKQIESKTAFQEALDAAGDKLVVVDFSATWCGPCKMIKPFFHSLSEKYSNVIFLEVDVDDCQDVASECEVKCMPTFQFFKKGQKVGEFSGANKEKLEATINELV
T2 sequence (Q99757 60-166): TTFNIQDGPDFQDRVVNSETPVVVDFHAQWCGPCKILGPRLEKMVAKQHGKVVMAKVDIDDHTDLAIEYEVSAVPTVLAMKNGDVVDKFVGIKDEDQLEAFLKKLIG

In the case of `O=C(c1ccc(N2CCOCC2)cc1)N1CCCC(N(Cc2ccccc2)C(=O)CCl)CC1` (centres unmarked) [BPK-29, N-benzyl-2-chloro-N-(1-(4-morpholinobenzoyl)azepan-4-yl)acetamide], the “BPK-29-competed isoTOP-ABPP analysis” value (TXN) was “Yes (Competed defined as showing R value ≥ 3.0 at 40 μM of test compound)” and the “BPK-29-competed isoTOP-ABPP analysis” value (TXN2) was “Yes (Competed defined as showing R value ≥ 3.0 at 40 μM of test compound)”.
